According to PubChem BioAssay AID248 (DTP/NCI, 2004):
Several values for one entry are separate records, joined by “and”; a condition that tells them apart may be missing. Identical values can stand only once. Inconclusive results and toxic doses are left out. No stated cut-off is given here; in the data, active means T/C of 150% or more; inactive means T/C below 125%. Square brackets hold non-standard residues; d marks the D form. Peptide text beside a SMILES is read from it. * marks the point of attachment. ξ: configuration not given here. Hexanoyl = CCCCCC(=O)*; ξP = O=C(O)C1CCCN1

Tested on: L1210 leukemia ip in BDF1 mice, survival T/C
Experiment: NCI In Vivo Anticancer Drug Screen. Data for tumor model L1210 Leukemia (intraperitoneal) in B6D2F1 (BDF1) mice
Details: endpoint: mean survival time, higher = longer survival
Outline: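 Transplanted-tumor mice were given test agent; controls received vehicle only. Survival readings from the two groups were divided (treated over control).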

[1] = dose: 100.0 mg/kg/injection, schedule: Q01DX001 (ip), vehicle: saline
[2] = dose: 200.0 mg/kg/injection, schedule: Q01DX001 (ip), vehicle: saline
[3] = dose: 400.0 mg/kg/injection, schedule: Q01DX001 (ip), vehicle: saline
[4] = dose: 100.0 mg/kg/injection, schedule: Q01DX001 (ip), vehicle: saline with Tween-80
[5] = dose: 100.0 mg/kg/injection, schedule: Q01DX009 (ip), vehicle: saline with Tween-80
[6] = dose: 100.0 mg/kg/injection, schedule: Q04DX002 (ip), vehicle: Klucel (hydroxypropylcellulose) (HPC)
[7] = dose: 100.0 mg/kg/injection, schedule: Q04DX002 (ip), vehicle: saline with Tween-80
[8] = dose: 100.0 mg/kg/injection, schedule: Q04DX003 (ip), vehicle: saline with Tween-80
[9] = dose: 200.0 mg/kg/injection, schedule: Q01DX001 (ip), vehicle: saline with Tween-80
[10] = dose: 200.0 mg/kg/injection, schedule: Q01DX009 (ip), vehicle: saline with Tween-80
[11] = dose: 200.0 mg/kg/injection, schedule: Q04DX002 (ip), vehicle: Klucel (hydroxypropylcellulose) (HPC)
[12] = dose: 200.0 mg/kg/injection, schedule: Q04DX002 (ip), vehicle: saline with Tween-80
[13] = dose: 200.0 mg/kg/injection, schedule: Q04DX003 (ip), vehicle: saline with Tween-80
[14] = dose: 400.0 mg/kg/injection, schedule: Q01DX001 (ip), vehicle: saline with Tween-80
[15] = dose: 400.0 mg/kg/injection, schedule: Q01DX009 (ip), vehicle: saline with Tween-80
[16] = dose: 400.0 mg/kg/injection, schedule: Q04DX002 (ip), vehicle: Klucel (hydroxypropylcellulose) (HPC)
[17] = dose: 400.0 mg/kg/injection, schedule: Q04DX003 (ip), vehicle: saline with Tween-80
[18] = dose: 100.0 mg/kg/injection, schedule: Q04DX003 (ip), vehicle: Klucel (hydroxypropylcellulose) (HPC)
[19] = dose: 100.0 mg/kg/injection, schedule: Q01DX001 (ip), vehicle: carboxymethylcellulose (CMC)
[20] = dose: 200.0 mg/kg/injection, schedule: Q01DX001 (ip), vehicle: carboxymethylcellulose (CMC)
[21] = dose: 400.0 mg/kg/injection, schedule: Q01DX001 (ip), vehicle: carboxymethylcellulose (CMC)

Measured: T/C

CC1CCC2(OC1)OC1CC3C4CCC5CC(O)CCC5(C)C4CC(=O)OC3(C)C1C2C (configuration not stated)
inactive: dose: 100.0 mg/kg/injection, schedule: Q01DX001 (ip), vehicle: other 97 % of control | dose: 200.0 mg/kg/injection, schedule: Q01DX001 (ip), vehicle: other 87 % of control | dose: 400.0 mg/kg/injection, schedule: Q01DX001 (ip), vehicle: other 92 % of control

C/C(=N/N(C)C)c1ccc(Cl)cc1
inactive: dose: 12.5 mg/kg/injection, schedule: Q01DX009 (ip), vehicle: saline 105 % of control | dose: 25.0 mg/kg/injection, schedule: Q01DX009 (ip), vehicle: saline 112 % of control | dose: 50.0 mg/kg/injection, schedule: Q01DX009 (ip), vehicle: saline 111 % of control | dose: 100.0 mg/kg/injection, schedule: Q04DX003 (ip), vehicle: saline 101 % of control

CCCCC(=O)N/N=C/c1ccc(N(C)C)cc1
inactive: [1] 91 % of control | [2] 87 % of control | [3] 95 % of control

CSc1ccc(OC(=O)Nc2ccc(Cl)cc2)cc1
inactive: [4] 95 % of control | [5] 104 % of control and 106 % of control | [6] 103 % of control | [7] 98 % of control | [8] 93 % of control | [9] 106 % of control | [10] 102 % of control and 104 % of control | [11] 103 % of control | [12] 90 % of control | [13] 95 % of control | [14] 90 % of control | [15] 100 % of control and 117 % of control | [16] 92 % of control | dose: 400.0 mg/kg/injection, schedule: Q04DX002 (ip), vehicle: saline with Tween-80 98 % of control | [17] 98 % of control

CCCCCC(=O)NCC(=O)N1CCCC1C(=O)O (configuration not stated) (Hexanoyl-Gly-[ξP]-OH)
inactive: [1] 95 % of control | [2] 107 % of control | [3] 98 % of control

C#CCOS(=O)OCCCCCCCCCC (configuration not stated) (tested in a mixture with another compound)
inactive: [18] 105 % of control | dose: 200.0 mg/kg/injection, schedule: Q04DX003 (ip), vehicle: Klucel (hydroxypropylcellulose) (HPC) 91 % of control | dose: 400.0 mg/kg/injection, schedule: Q04DX003 (ip), vehicle: Klucel (hydroxypropylcellulose) (HPC) 94 % of control

CCc1ccc(NC(=S)NC(=O)/C=C/c2ccccc2)cc1
inactive: [4] 92 % of control | [5] 99 % of control and 102 % of control | dose: 100.0 mg/kg/injection, schedule: Q04DX002 (ip), vehicle: alcohol 114 % of control | [8] 92 % of control | [9] 87 % of control | [10] 92 % of control and 96 % of control | dose: 200.0 mg/kg/injection, schedule: Q04DX002 (ip), vehicle: alcohol 90 % of control | [14] 89 % of control | [15] 96 % of control and 105 % of control | dose: 400.0 mg/kg/injection, schedule: Q04DX002 (ip), vehicle: alcohol 97 % of control | [17] 87 % of control

C/C=C1\C[C@@H]2C(OC)Nc3cc(O)c(OC)cc3C(=O)N2C1 (some centres not stated)
inactive: dose: 0.02 mg/kg/injection, schedule: Q01DX009 (ip), vehicle: saline 98 % of control | dose: 0.04 mg/kg/injection, schedule: Q01DX009 (ip), vehicle: saline 98 % of control | dose: 0.09 mg/kg/injection, schedule: Q01DX009 (ip), vehicle: saline 92 % of control | dose: 0.18 mg/kg/injection, schedule: Q01DX009 (ip), vehicle: saline 101 % of control | dose: 0.18 mg/kg/injection, schedule: Q04DX002 (ip), vehicle: saline 100 % of control | dose: 0.37 mg/kg/injection, schedule: Q04DX002 (ip), vehicle: saline 100 % of control | dose: 0.75 mg/kg/injection, schedule: Q04DX002 (ip), vehicle: saline 110 % of control

CCCCCCCCCC(=O)N1CCCCC1CC (configuration not stated)
inactive: [19] 103 % of control | dose: 100.0 mg/kg/injection, schedule: Q01DX009 (ip), vehicle: carboxymethylcellulose (CMC) 94 % of control and 95 % of control | dose: 100.0 mg/kg/injection, schedule: Q04DX002 (ip), vehicle: carboxymethylcellulose (CMC) 100 % of control and 92 % of control | dose: 100.0 mg/kg/injection, schedule: Q04DX003 (ip), vehicle: carboxymethylcellulose (CMC) 92 % of control | [20] 101 % of control | dose: 200.0 mg/kg/injection, schedule: Q01DX009 (ip), vehicle: carboxymethylcellulose (CMC) 95 % of control and 102 % of control | dose: 200.0 mg/kg/injection, schedule: Q04DX002 (ip), vehicle: carboxymethylcellulose (CMC) 103 % of control and 92 % of control | dose: 200.0 mg/kg/injection, schedule: Q04DX003 (ip), vehicle: carboxymethylcellulose (CMC) 95 % of control | [21] 95 % of control | dose: 400.0 mg/kg/injection, schedule: Q04DX002 (ip), vehicle: carboxymethylcellulose (CMC) 95 % of control and 96 % of control | dose: 400.0 mg/kg/injection, schedule: Q04DX003 (ip), vehicle: carboxymethylcellulose (CMC) 97 % of control

O=[N+]([O-])c1ccc(N2CCN(c3cccc(C(F)(F)F)c3)CC2)c([N+](=O)[O-])c1
inactive: [8] 105 % of control | [13] 102 % of control | [17] 100 % of control

CCc1ccc(/C(C#N)=C/C=C/c2ccccc2)cc1
inactive: [6] 112 % of control | [11] 102 % of control | [16] 97 % of control

CCC(CO)NC(=O)/C=C/c1cc(OC)ccc1OC (configuration not stated)
inactive: dose: 150.0 mg/kg/injection, schedule: Q04DX003 (ip), vehicle: saline with Tween-80 111 % of control | dose: 300.0 mg/kg/injection, schedule: Q04DX003 (ip), vehicle: saline with Tween-80 102 % of control | dose: 600.0 mg/kg/injection, schedule: Q04DX003 (ip), vehicle: saline with Tween-80 109 % of control

Oc1c(Br)cc(F)cc1Br
inactive: [7] 98 % of control | [12] 94 % of control

CC1=CC(C)(C)Nc2ccc(Cc3ccc4c(c3)C(C)=CC(C)(C)N4)cc21
inactive: [5] 86 % of control | [10] 100 % of control | [15] 92 % of control

O=[N+]([O-])c1ccc2cnn(CN3CCCCC3)c2c1
inactive: [19] 98 % of control | [21] 98 % of control

O=C(c1cccc2ccccc12)N(c1ccccc1)c1ccccc1
inactive: [18] 103 % of control

CCOC(=O)c1c(NC(=O)CCC(=O)Nc2sc(C)c(C)c2C(=O)OCC)sc(C)c1C
inactive: dose: 50.0 mg/kg/injection, schedule: Q04DX003 (ip), vehicle: saline with Tween-80 88 % of control | dose: 100.0 mg/kg/injection, schedule: Q01DX009 (ip), vehicle: Klucel (hydroxypropylcellulose) (HPC) 90 % of control | [8] 98 % of control | [13] 90 % of control | dose: 400.0 mg/kg/injection, schedule: Q01DX009 (ip), vehicle: Klucel (hydroxypropylcellulose) (HPC) 88 % of control | [17] 88 % of control

CCCCCCC1N(Cc2ccccc2OC)CCCN1Cc1ccccc1OC
inactive: [19] 100 % of control | [20] 105 % of control | [21] 94 % of control

C[N+]1(CCCCCNC2=CC(=O)C(NCCCCC[N+]3(C)CCCCC3)=CC2=O)CCCCC1
inactive: dose: 0.1 mg/kg/injection, schedule: Q01DX001 (ip), vehicle: saline 96 % of control

CCOP(=O)(Nc1ccc2c(c1)C(O)c1ccccc1-2)OCC (configuration not stated)
inactive: dose: 50.0 mg/kg/injection, schedule: Q01DX001 (ip), vehicle: carboxymethylcellulose (CMC) 100 % of control | [19] 94 % of control | [20] 103 % of control | [21] 103 % of control

CCCCNC(=O)Nc1ccc(N(C)C)cc1
inactive: dose: 50.0 mg/kg/injection, schedule: Q01DX009 (ip), vehicle: saline with Tween-80 95 % of control | [5] 92 % of control | [8] 102 % of control | [10] 90 % of control | [13] 100 % of control | [17] 109 % of control

O=C(O)c1cccc(F)c1O
inactive: [1] 97 % of control | [2] 97 % of control

CCCCCCCCCCCCCCCCSS(=O)(=O)c1ccc(C)cc1
inactive: dose: 75.0 mg/kg/injection, schedule: Q01DX001 (ip), vehicle: saline 98 % of control | dose: 150.0 mg/kg/injection, schedule: Q01DX001 (ip), vehicle: saline 91 % of control | dose: 300.0 mg/kg/injection, schedule: Q01DX001 (ip), vehicle: saline 90 % of control
